From patent US20240390453A1, “PEPTIDE HAVING HAIR LOSS PREVENTION OR HAIR GROWTH PROMOTION ACTIVITY, AND USE THEREOF” (CAREGEN CO., LTD., priority 2021, published 2024)

Assays:
cyclin D1 = assay: RT-PCR of cyclin D1 expression in HHFDPC; assay type: cell-based, human; settings: peptide 500 nM, 5 μM, 50 μM, 24 hours, FIG. 4
Protocol: (§1) Furthermore, in order to determine whether the β-catenin moves to the nucleus and is activated to affect cell proliferation and differentiation, whether the expression of LEF-1, c-Myc and cyclin D1 (cyclin D1), which act as downstream factors, increases with β-catenin activation was confirmed through RT-PCR. Specifically, in the same manner as the previous Western blotting experiment, HHFDPC cells were cultured, treated with the peptides of the Preparation Example of the present invention at concentrations of 500 nM, 5 μM, and 50 μM, respectively, and cultured at 37° C. for 24 hours. After washing the cells with PBS, RNA was isolated by treating them with 300 μl of easy blue (intron, Korea). Then, cDNA was synthesized using a cDNA synthesis kit (enzynomics, Korea) by quantifying it with nano drop, and PCR was performed using primers for LEF-1, c-Myc and cyclin D1 (base sequences of the primer are listed in Table 2 below) and PCR premix (enzynomics, Korea). Electrophoresis was performed on a 1.5% agarose gel, and then the mRNA of LEF-1, c-Myc and cyclin D1 was detected using a band analysis system (Bio-Rad gel image system).

β-catenin = assay: Western blotting of β-catenin moved into the nucleus of HHFDPC; assay type: cell-based, human; settings: HHFDPC nuclear protein, peptide 500 nM, 5 µM, and 50 μM, 24 hours, FIG. 3
Protocol: In addition, in addition to p-AKT and p-ERK, in order to confirm the activation of β-catenin, which is known to affect cell proliferation and differentiation, whether β-catenin moved into the nucleus was confirmed through Western blotting. Specifically, the HHFDPC as in [Experiment Example 1-1] was seeded in a 6-well culture plate at an amount of 4λ10^5 cells/well, cultured in MSC complete medium (mesenchymal stem cell complete media) for 24 hours. Next, the medium was replaced with serum free MSC complete medium and cultured again for 24 hours. Then, the HHFDPC was treated with the peptide of SEQ ID NO: 1 prepared in the Preparation Example at concentrations of 500 nM, […], and 50 μM, respectively, and cultured at 37° C. for 24 hours. As a positive control, minoxidil was treated at a concentration of 1 μM, and as a negative control, HHFDPC without any treatment was used. After washing with PBS, proteins in the nucleus were isolated using a nuclear protein extraction kit (Thermo scientific, USA). After electrophoresis using a 10% SDS-PAGE gel, it was transferred to a PVDF membrane and blocked using 5% skim milk at room temperature for 30 minutes. […] After washing again with 0.1% PBS-T (0.1% Tween-20 in PBS) three times for 15 minutes each, β-catenin was detected by treatment with ECL solution (GE Healthcare, USA).

[1] = system: DKK-1 protein (dickkopf-related protein 1); assay: Western blotting of DKK-1 protein in DHT-treated HHFDPC; assay type: cell-based, human; settings: HHFDPC with DHT 100 nM, peptide 500 nM, 5 μM, 50 μM, 24 hours, FIG. 5
Protocol: DKK-1 protein (dickkopf-related protein 1) is a hair loss-related protein known to be highly expressed in individuals with hair loss, especially male pattern hair loss, and its expression is known to be promoted by hormones such as DHT (Dihydrotestosterone). Accordingly, the expression of DKK-1 protein was induced by treating HHFDPC cells with DHT together with the peptide according to the Preparation Example of the present invention, and then the expression level of DKK-1 was measured through Western blotting to determine whether there was an effect of suppressing the expression of DKK-1 protein.
Specifically, HHFDPC as in [Experiment Example 1-1] was seeded in a 6-well culture plate at 4λ10^5 cells/well and then cultured in MSC complete medium (mesenchymal stem cell complete media) for 24 hours. Next, the medium was replaced with serum free MSC complete medium and cultured again for 24 hours. In addition, the HHFDPC was treated with the peptide of SEQ ID NO: 1 prepared in the Preparation Example at concentrations of 500 nM, 5 μM, and 50 μM, respectively, and at this time, DHT, an expression inducer of DKK-1 protein, was simultaneously treated at a concentration of 100 nM and then cultured at 37° C. for 24 hours. […] After washing again with 0.1% PBS-T (0.1% Tween-20 in PBS) three times for 15 minutes each, DKK-1 protein was detected by treatment with ECL solution (GE Healthcare, USA).

LEF-1 = assay: RT-PCR of LEF-1 expression in HHFDPC; assay type: cell-based, human; settings: peptide 500 nM, 5 μM, 50 μM, 24 hours, FIG. 4
Protocol: as §1

MSX2 = assay: RT-PCR of MSX2 expression in HHGMC; assay type: cell-based, human; settings: peptide 500 nM, 5 μM, 50 μM, 72 hours, FIG. 7
Protocol: (§2) Specifically, HHGMC (human hair germinal matrix cell, Sciencell, USA) was seeded in a 6-well culture plate at 4λ10^5 cells/well and then cultured in MSC complete medium (mesenchymal stem cell complete media) for 24 hours. Next, the medium was replaced with serum free MSC complete medium and cultured again for 24 hours. Then, the HHGMC was treated with the peptide of SEQ ID NO: 1 prepared in the Preparation Example at concentrations of 500 nM, 5 μM, and 50 μM, respectively, and cultured at 37° C. for 72 hours. As a positive control, EGF was treated at a concentration of 50 nM, and as a negative control, HHGMC without any treatment was used. After washing with PBS, RNA was isolated by treating with 300 μl of easy blue (intron, Korea). Next, cDNA was synthesized using a cDNA synthesis kit (enzynomics, Korea) by quantification using nano drop, and PCR was performed using primers for MSX2 and FOXN1 (base sequences of primer are listed in Table 4 below) and PCR premix (enzynomics, Korea). Electrophoresis was performed on a 1.5% agarose gel, and mRNA of MSX2 and FOXN1 was detected using a band analysis system (Bio-Rad gel image system).

p-ERK = assay: Western blotting of phosphorylated ERK in HHFDPC; assay type: cell-based, human; settings: peptide 500 nM, 5 μM, and 50 µM, 24 hours, FIG. 2
Protocol: (§3) First, phosphorylated forms of AKT and ERK, which act as signaling molecules related to the proliferation of HHFDPC, were confirmed through Western blotting. Specifically, HHFDPC as in [Experiment Example 1-1] above was seeded at 4λ10^5 cells/well in a 6-well culture plate, cultured in MSC complete medium (mesenchymal stem cell complete media) for 24 hours, and then the medium was replaced with serum free MSC complete medium and cultured for another 24 hours. Then, the HHFDPC was treated with the peptide of SEQ ID NO: 1 prepared in the Preparation Example at concentrations of 500 nM, 5 μM, and 50 µM, respectively, and cultured at 37° C. for 24 hours. As a positive control, minoxidil was treated at a concentration of 1 μM, and as a negative control, HHFDPC without any treatment was used. Then, Western blotting was performed to detect phosphorylated AKT and phosphorylated ERK. After washing with PBS, the cells were treated with 100 μl of lysis buffer to destroy cells, thereby obtaining cell lysate. After electrophoresis using a 10% SDS-PAGE gel, it was transferred to a PVDF membrane and blocked using 5% skim milk at room temperature for 30 minutes. […] After washing again with 0.1% PBS-T (0.1% Tween-20 in PBS) three times for 15 minutes each, p-AKT and p-ERK were detected by treatment with ECL solution (GE Healthcare, USA).

Keratin 5 = assay: RT-PCR of Keratin 5 expression in HHORSC; assay type: cell-based, human; settings: peptide 500 nM, 5 μM, 50 μM, 72 hours, FIG. 6
Protocol: (§4) Specifically, HHORSC (human hair outer root sheath cell, Sciencell, USA) was seeded in a 6-well culture plate at 4λ10^5 cells/well and then cultured in MSC complete medium (mesenchymal stem cell complete media) for 24 hours. Next, the medium was replaced with serum free MSC complete medium and cultured again for 24 hours. Then, the HHORSC was treated with the peptide of SEQ ID NO: […] in the Preparation Example at concentrations of 500 nM, 5 μM, and 50 μM, respectively, and cultured at 37° C. for 72 hours. As a positive control, EGF was treated at a concentration of 50 nM, and as a negative control, HHORSC without any treatment was used. After washing with PBS, RNA was isolated by treating with 300 μl of easy blue (intron, Korea). Then, cDNA was synthesized using a cDNA synthesis kit (enzynomics, Korea) by quantification using nano drop, and PCR was performed using primers for Ha3-II, Keratin 5, Keratin 14, and Keratin 19 (base sequences of primer are listed in Table 3 below) and PCR premix (enzynomics, Korea). Electrophoresis was performed on a 1.5% agarose gel, and the mRNAs of Ha3-II, Keratin 5, Keratin 14, and Keratin 19 were detected using a band analysis system (Bio-Rad gel image system).

[2] = system: human hair follicle dermal papilla cells (HHFDPC); assay: Proliferation of dermal papilla cells (MTT, absorbance at 540 nm); assay type: cell-based; settings: peptide 500 nM, 72 hours, FIG. 1
Protocol: While culturing human hair follicle dermal dermal papilla cells (HHFDPC), the absorbance was measured after treatment with the peptide of the present invention to confirm whether there was an effect of promoting the proliferation of the HHFDPC dermal papilla cells.
Specifically, HHFDPC (Sciencell, USA) was seeded at 4λ10^3 cells/well in a 96-well culture plate, cultured in MSC complete medium (mesenchymal stem cell complete media, Sciencell, USA) for 24 hours, and then the medium was replaced with serum free MSC complete medium and cultured for another 24 hours. Then, the HHFDPC was treated with the peptide of SEQ ID NO: 1 prepared in the Preparation Example at concentrations of 500 nM, 5 μM, and 50 μM, respectively, and cultured at 37° C. for 72 hours. As a positive control, minoxidil was treated at a concentration of 1 μM, and as a negative control, HHFDPC without any treatment was used. Then, 10 μl of 5 mg/mL MTT solution was added and cultured in a 37° C. CO2 incubator for 4 hours to stain the cells. After removing the medium, the cells were treated with 100 μl of DMSO and shaken for 10 minutes, and the number of HHFDPC cells was confirmed by measuring absorbance at a wavelength of 540 nm using a spectrophotometer.

p-AKT = assay: Western blotting of phosphorylated AKT in HHFDPC; assay type: cell-based, human; settings: peptide 500 nM, 5 μM, and 50 µM, 24 hours, FIG. 2
Protocol: as §3

c-Myc = assay: RT-PCR of c-Myc expression in HHFDPC; assay type: cell-based, human; settings: peptide 500 nM, 5 μM, 50 μM, 24 hours, FIG. 4
Protocol: as §1

Keratin 14 = assay: RT-PCR of Keratin 14 expression in HHORSC; assay type: cell-based, human; settings: peptide 500 nM, 5 μM, 50 μM, 72 hours, FIG. 6
Protocol: as §4

Keratin 19 = assay: RT-PCR of Keratin 19 expression in HHORSC; assay type: cell-based, human; settings: peptide 500 nM, 5 μM, 50 μM, 72 hours, FIG. 6
Protocol: as §4

FOXN1 = assay: RT-PCR of FOXN1 expression in HHGMC; assay type: cell-based, human; settings: peptide 500 nM, 5 μM, 50 μM, 72 hours, FIG. 7
Protocol: as §2

Ha3-II = assay: RT-PCR of Ha3-II expression in HHORSC; assay type: cell-based, human; settings: peptide 500 nM, 5 μM, 50 μM, 72 hours, FIG. 6
Protocol: as §4

In the case of “HLPKPI [peptide of the present invention]”, the “amount of cyclin D1 mRNA compared to the control group without any treatment” value (cyclin D1) is reported as “increased further”, the “concentration dependence of β-catenin activation” value (β-catenin) is reported as “further promoted depending on the concentration” and the “migration of β-catenin to the nucleus due to activation, compared to the control group not treated with the peptide” value (β-catenin; Western blotting) is reported as “increased”. The “concentration dependence of the decrease of DHT-increased DKK-1 expression” value [1] was “decreased again depending on the concentration”, the “amount of DKK-1 protein compared to the negative control group (DHT only)” value ([1]; Western blotting) was “reduced” and the “amount of LEF-1 mRNA compared to the control group without any treatment” value (LEF-1) was “increased further”. For the same substance, the “amount of MSX2 mRNA compared to the untreated control group” value (MSX2) was “increased further”, the “phosphorylation of ERK (p-ERK) compared to the control group not treated with the peptide” value (p-ERK) was “increased” and the “amount of Keratin 5 mRNA compared to the control group without treatment” value (Keratin 5) was “increased further”. The “absorbance (number of HHFDPC cells, proliferation) compared to the untreated control group” value ([2]; 5 μM, 50 μM, MTT, 540 nm) was “higher”, the “proliferation promotion effect compared to the positive control group” value ([2]; 5 μM, and 50 μM vs minoxidil 1 μM) was “better proliferation promotion effect than the positive control group” and the “phosphorylation of AKT (p-AKT) compared to the control group not treated with the peptide” value (p-AKT) was “increased”. The “amount of c-Myc mRNA compared to the control group without any treatment” value (c-Myc) was “increased further”, the “amount of Keratin 14 mRNA compared to the control group without treatment” value (Keratin 14) was “increased further” and the “amount of Keratin 19 mRNA compared to the control group without treatment” value (Keratin 19) was “increased further”. For the same substance, the “amount of FOXN1 mRNA compared to the untreated control group” value (FOXN1) was “increased further” and the “amount of Ha3-II mRNA compared to the control group without treatment” value (Ha3-II) was “increased further”.
